Measured values from ChEMBL document CHEMBL5303304, “EUbOPEN Chemogenomics Library - IncuCyte” (2023).

How the values were obtained:
Format in all cases: toxicity, cell-based
Fibroblast = test: Incucyte cell viability with human fibroblast; conditions: 10 µM, compound concentration 10 uM
U2OS = test: Incucyte cell viability with U2OS; conditions: human, 10 µM, compound concentration 10 uM
HEK-293T = test: Incucyte cell viability with HEK293T; conditions: human, 10 µM, compound concentration 10 uM
Also: unitless GR value; below 1 slowed growth and below 0 cell loss.

Structure (SMILES)	Growth Rate (Fibroblast; 6 h, replicate number 1)	Growth Rate (Fibroblast; 12 h, replicate number 1)	Growth Rate (Fibroblast; 18 h, replicate number 2)	Growth Rate (Fibroblast; 24 h, replicate number 2)	Growth Rate (U2OS; 6 h, replicate number 1)	Growth Rate (U2OS; 12 h, replicate number 2)	Growth Rate (U2OS; 18 h, replicate number 2)	Growth Rate (HEK-293T; 6 h, replicate number 1)	Growth Rate (HEK-293T; 6 h, replicate number 2)	Growth Rate (HEK-293T; 12 h, replicate number 1)	Growth Rate (HEK-293T; 12 h, replicate number 2)	Growth Rate (HEK-293T; 18 h, replicate number 1)	Growth Rate (HEK-293T; 18 h, replicate number 2)	Growth Rate (HEK-293T; 24 h, replicate number 2)	Growth Rate (Fibroblast; 6 h, replicate number 2)	Growth Rate (Fibroblast; 12 h, replicate number 2)	Growth Rate (U2OS; 12 h, replicate number 1)	Growth Rate (U2OS; 18 h, replicate number 1)	Growth Rate (U2OS; 24 h, replicate number 1)	Growth Rate (HEK-293T; 0 h, replicate number 2)	also measured
CC(=O)N1CCN(c2ccc(OCC3COC(Cn4ccnc4)(c4ccc(Cl)cc4Cl)O3)cc2)CC1 (centres undefined) [KETOCONAZOLE]	0.47	-1	0.96	0.89	0.7	0.63	0.99	-0.34	-0.16	0.05	0.03	0.34	0.32	0.38	–	–	–	–	–	–	Growth Rate (Fibroblast; 0 h, replicate number 2): -0.79; Growth Rate (U2OS; 0 h, replicate number 2): -0.98; Growth Rate (U2OS; 6 h, replicate number 2): 0.94; Growth Rate (HEK-293T; 24 h, replicate number 1): 0.6
Cc1c[nH]c(-c2cnc(NCCNc3ccc(C#N)cn3)nc2-c2ccc(Cl)cc2Cl)n1 [LADUVIGLUSIB]	0.56	-0.47	-0.3	-0.28	0.47	0.87	0.93	0.35	0.14	0.49	0.43	0.58	0.7	0.75	0.81	-0.19	0.48	0.83	0.56	0.92	Growth Rate (Fibroblast; 18 h, replicate number 1): -0.4; Growth Rate (Fibroblast; 24 h, replicate number 1): -0.33; Growth Rate (U2OS; 0 h, replicate number 1): 0.54; Growth Rate (U2OS; 24 h, replicate number 2): 0.99; Growth Rate (HEK-293T; 0 h, replicate number 1): 0.82; Growth Rate (HEK-293T; 24 h, replicate number 1): 0.71
O=C(O)CCCc1cc2cc(Cl)ccc2n1S(=O)(=O)c1ccc2ncsc2c1 [LANIFIBRANOR]	0.58	–	–	–	–	–	–	0.78	0.49	–	0.73	–	0.59	0.63	0.28	0.76	0.94	–	–	-0.8	Growth Rate (Fibroblast; 0 h, replicate number 2): 0.65; Growth Rate (HEK-293T; 0 h, replicate number 1): 0.87
CS(=O)(=O)CCNCc1ccc(-c2ccc3ncnc(Nc4ccc(OCc5cccc(F)c5)c(Cl)c4)c3c2)o1 [LAPATINIB]	-0.42	–	0.7	–	0.66	0.92	0.99	–	0.95	–	0.94	–	0.95	0.87	0.69	0.65	0.78	0.86	0.9	–	Growth Rate (Fibroblast; 0 h, replicate number 1): 0.88; Growth Rate (U2OS; 0 h, replicate number 1): 0.96; Growth Rate (U2OS; 6 h, replicate number 2): 0.93; Growth Rate (U2OS; 24 h, replicate number 2): 0.98; Growth Rate (HEK-293T; 0 h, replicate number 1): 0.86
C=CC(=O)Nc1cc(Nc2nccc(-n3cc(CN(C)C)c(-c4ccccc4)n3)n2)c(OC)cc1N1CCOCC1 [LAZERTINIB]	0.27	-1	–	0.86	-0.48	0.92	0.96	0.45	–	–	–	–	–	–	-0.96	0.67	0.19	0.4	0.78	0.8	Growth Rate (U2OS; 0 h, replicate number 2): -0.99; Growth Rate (U2OS; 6 h, replicate number 2): 0.77; Growth Rate (U2OS; 24 h, replicate number 2): 0.91
CN[C@@H](C)C(=O)N[C@H](C(=O)N1CCC[C@H]1c1nc(C(=O)c2ccc(F)cc2)cs1)C1CCCCC1 [LCL-161]	–	–	0.88	0.85	0.45	–	–	0.22	0.84	0.4	0.95	0.53	–	–	0.19	–	0.96	0.91	–	-0.96	Growth Rate (U2OS; 0 h, replicate number 1): -0.08; Growth Rate (HEK-293T; 24 h, replicate number 1): 0.84
CN1C(=O)c2c(nn(Cc3ccc(-c4cccc(F)n4)cc3)c2Nc2ccccc2)N2C1=N[C@@H]1CCC[C@@H]12.O=P(O)(O)O [LENRISPODUN PHOSPHATE]	–	–	0.94	–	0.84	–	–	–	–	–	0.71	–	0.79	0.83	–	0.65	0.5	0.67	0.68	0.18	Growth Rate (Fibroblast; 0 h, replicate number 1): -1; Growth Rate (U2OS; 0 h, replicate number 1): 0.51; Growth Rate (HEK-293T; 0 h, replicate number 1): 0.85
C[C@@H]1C[C@H](N)C[C@H](c2ccncc2NC(=O)c2ccc(F)c(-c3c(F)cccc3F)n2)C1 [LGH-447]	–	0.96	0.58	0.44	-0.22	–	–	-0.02	0.11	0.2	0.54	0.27	0.54	0.57	0.93	0.9	0.59	0.82	0.98	–	Growth Rate (Fibroblast; 0 h, replicate number 2): 0.09; Growth Rate (Fibroblast; 18 h, replicate number 1): 0.87; Growth Rate (Fibroblast; 24 h, replicate number 1): 0.67; Growth Rate (U2OS; 24 h, replicate number 2): 0.96; Growth Rate (HEK-293T; 24 h, replicate number 1): 0.36
